Results from US20240228488A1 (TAKEDA PHARMACEUTICAL COMPANY LIMITED, priority 2021, published 2024).

How the values were obtained:
[1] = biological target: human activated kallikrein enzyme (Homo sapiens, UniProt P03952); assay: Plasma kallikrein inhibition, fluorogenic PFR-AMC substrate, 500 pM activated kallikrein format; type: biochemical; conditions: 500 pM activated kallikrein, 300 uM PFR-AMC, 30 min preincubation, 10 min reaction; read-out: Primary Dose Response Assay: Average EC50
Outline: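 Enzyme (500 pM) was preincubated with inhibitor for 30 min at room temperature in 20 mM Tris pH 7.5, 1 mM EDTA, 150 mM NaCl, 0.1% PEG-400 and 0.1% Triton X-100. The reaction was started with 300 uM PFR-AMC, run 10 min, and fluorescence read at 460 nm (380 nm excitation). EC50 derived.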

plasma kallikrein = biological target: T1, plasma kallikrein (Homo sapiens, UniProt P03952); assay: Neat human plasma assay, FXIIa contact pathway-activated, PFR-AMC substrate; type: biochemical; conditions: citrated human plasma 78% final, 10 nM human FXIIa, 100 μM PFR-AMC; read-out: Human Plasma Assay: IC90
T1 construct: from tissue
Outline: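 Citrated human plasma (78% final) with compound, contact-activated by 10 nM human FXIIa in pKal buffer pH 7.5, with 100 μM PFR-AMC. Fluorescence (360/480 nm) followed 5 min at room temperature; rates versus concentration fitted by 4-parameter equation for IC50/IC90.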

Chain of human activated kallikrein enzyme (P03952 391-638 limits assumed): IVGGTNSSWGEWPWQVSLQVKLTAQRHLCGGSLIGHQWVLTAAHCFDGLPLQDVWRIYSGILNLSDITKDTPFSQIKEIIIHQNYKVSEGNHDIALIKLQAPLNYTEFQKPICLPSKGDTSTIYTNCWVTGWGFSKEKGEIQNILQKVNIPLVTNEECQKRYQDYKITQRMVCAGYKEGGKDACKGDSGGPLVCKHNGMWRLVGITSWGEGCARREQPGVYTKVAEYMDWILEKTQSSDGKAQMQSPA
Chain of human activated kallikrein enzyme (P03952 20-390 partner limits assumed): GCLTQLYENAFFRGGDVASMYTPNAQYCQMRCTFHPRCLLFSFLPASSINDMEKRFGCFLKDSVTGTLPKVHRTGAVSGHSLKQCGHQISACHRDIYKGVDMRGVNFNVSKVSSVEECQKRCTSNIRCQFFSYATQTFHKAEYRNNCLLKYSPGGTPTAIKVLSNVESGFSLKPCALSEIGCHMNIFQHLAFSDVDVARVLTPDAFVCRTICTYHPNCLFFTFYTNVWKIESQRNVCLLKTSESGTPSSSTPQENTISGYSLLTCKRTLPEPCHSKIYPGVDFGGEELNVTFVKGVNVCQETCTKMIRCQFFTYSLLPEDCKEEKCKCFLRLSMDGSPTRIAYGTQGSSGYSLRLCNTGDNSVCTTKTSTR
T1 sequence (P03952 391-638 limits assumed): as the sequence (P03952 391-638 limits assumed) above
T1 sequence (P03952 20-390 partner limits assumed): as the sequence (P03952 20-390 partner limits assumed) above

`Cc1cccc([C@H]2C[C@@H]2C(=O)Nc2cc(NCc3cn4cc(C5CC5)cc(N5CC(=O)N(C)C5=O)c4n3)ncn2)n1` (racemic) [Example 500, rac-(1S*,2S*)-N-(6-(((6-cyclopropyl-8-(3-methyl-2,4-dioxoimidazolidin-1-yl)imidazo[1,2-a]pyridin-2-yl)methyl)amino)pyrimidin-4-yl)-2-(6-methylpyridin-2-yl)cyclopropane-1-carboxamide] gave an EC50 [1] of under 1 nM and an IC90 (plasma kallikrein) of 400 to 1500 nM.
`Cc1ccnc([C@H]2C[C@@H]2C(=O)Nc2cc(N(C)Cc3cn4cc(C5CC5)cc(N5CC(=O)N(CC(C)(C)O)C5=O)c4n3)ncn2)n1` [Example 368, (1S,2S)-N-(6-(((6-cyclopropyl-8-(3-(2-hydroxy-2-methylpropyl)-2,4-dioxoimidazolidin-1-yl)imidazo[1,2-a]pyridin-2-yl)methyl)(methyl)amino)pyrimidin-4-yl)-2-(4-methylpyrimidin-2-yl)cyclopropane-1-carboxamide] gave an EC50 [1] of under 1 nM and an IC90 (plasma kallikrein) of under 400 nM.
Compound `CN(C)C1CCN(c2cc(C3CC3)cn3cc(CNc4cc(NC(=O)[C@H]5C[C@@H]5c5cccc(Cl)c5)ncn4)nc23)C1` (mixture of isomers) [Example I-13, (1S,2S)-2-(3-chlorophenyl)-N-(6-(((6-cyclopropyl-8-(3-(dimethylamino)pyrrolidin-1-yl)imidazo[1,2-a]pyridin-2-yl)methyl)amino)pyrimidin-4-yl)cyclopropane-1-carboxamide] has an EC50 [1] of 1 to 10 nM and an IC90 (plasma kallikrein) of 1500 to 10000 nM.
`Cc1ccnc([C@H]2C[C@@H]2C(=O)Nc2cc(N3C[C@@H](O)C[C@@H]3c3cn4cc(C5CC5)cc(N5CC6CC6C5=O)c4n3)ncn2)n1` (relative stereo) [Example 482, rac-(1S*,2S*)—N-(6-((2R,4S)-2-(6-cyclopropyl-8-(2-oxo-3-azabicyclo[3.1.0]hexan-3-yl)imidazo[1,2-a]pyridin-2-yl)-4-hydroxypyrrolidin-1-yl)pyrimidin-4-yl)-2-(4-methylpyrimidin-2-yl)cyclopropane-1-carboxamide] gave an EC50 [1] of under 1 nM and an IC90 (plasma kallikrein) of 400 to 1500 nM.
Compound `O=C(Nc1cc(NCc2cn3cc(C4CC4)ccc3n2)cc(CCN2CCOCC2)n1)[C@H]1C[C@@H]1c1cccc(Cl)c1` [Example 341, (1S,2S)-2-(3-chlorophenyl)-N-(4-(((6-cyclopropylimidazo[1,2-a]pyridin-2-yl)methyl)amino)-6-(2-morpholinoethyl)pyridin-2-yl)cyclopropane-1-carboxamide] has an EC50 [1] of 1 to 10 nM and an IC90 (plasma kallikrein) of 1500 to 10000 nM.
For `CNC1CCN(c2cc(C3CC3)cn3cc(CNc4cc(NC(=O)[C@H]5C[C@@H]5c5cccc(Cl)c5)ncn4)nc23)C1` (stereo partly drawn) [Example I-16, (1S,2S)-2-(3-chlorophenyl)-N-(6-(((6-cyclopropyl-8-(3-(methylamino)pyrrolidin-1-yl)imidazo[1,2-a]pyridin-2-yl)methyl)amino)pyrimidin-4-yl)cyclopropane-1-carboxamide], the EC50 [1] was under 1 nM and the IC90 (plasma kallikrein) was 400 to 1500 nM.
`Cc1ccnc([C@H]2C[C@@H]2C(=O)Nc2cc(OC(C)c3cn4cc(C5CC5)cc(N5CC(=O)N(C)C5=O)c4n3)ncn2)n1` (stereo partly drawn) [Example 549, (1S,2S)—N-(6-(1-(6-cyclopropyl-8-(3-methyl-2,4-dioxoimidazolidin-1-yl)imidazo[1,2-a]pyridin-2-yl)ethoxy)pyrimidin-4-yl)-2-(4-methylpyrimidin-2-yl)cyclopropane-1-carboxamide] was tested, and the EC50 [1] was under 1 nM and the IC90 (plasma kallikrein) was 400 to 1500 nM.
With `CS(=O)(=O)c1cc(C2CC2)cn2cc(CNc3cc(NC(=O)[C@H]4C[C@@H]4c4cccc(Cl)c4)ncn3)nc12` [Example I-162, (1S,2S)-2-(3-chlorophenyl)-N-(6-(((6-cyclopropyl-8-(methylsulfonyl)imidazo[1,2-a]pyridin-2-yl)methyl)amino)pyrimidin-4-yl)cyclopropane-1-carboxamide] the EC50 [1] was 1 to 10 nM and the IC90 (plasma kallikrein) was 1500 to 10000 nM.
For `Cc1ccnc([C@H]2C[C@@H]2C(=O)Nc2cc(N3C[C@@H](O)C[C@@H]3c3cn4cc(C5CC5)ccc4n3)ncn2)c1` (relative stereo) [Example 472, rac-(1S*,2S*)-N-(6-((2R,4S)-2-(6-cyclopropylimidazo[1,2-a]pyridin-2-yl)-4-hydroxypyrrolidin-1-yl)pyrimidin-4-yl)-2-(4-methylpyridin-2-yl)cyclopropane-1-carboxamide], the EC50 [1] was 1 to 10 nM and the IC90 (plasma kallikrein) was 1500 to 10000 nM.
In the case of `CNCCc1cc(C2CC2)cn2cc(CNc3ccnc(NC(=O)[C@H]4C[C@@H]4c4cccc(Cl)c4)c3)nc12` [Example 607, (1S,2S)-2-(3-chlorophenyl)-N-(4-(((6-cyclopropyl-8-(2-(methylamino)ethyl)imidazo[1,2-a]pyridin-2-yl)methyl)amino)pyridin-2-yl)cyclopropane-1-carboxamide], the EC50 [1] is reported as under 1 nM and the IC90 (plasma kallikrein) is reported as under 400 nM.
Work on `O=C(Nc1cc(NCc2cn3cc(C4CC4)cc(N4CC(=O)N(CCO)C4=O)c3n2)ncn1)[C@H]1C[C@@H]1c1cccc(Cl)c1` [Example 463, (1S,2S)-2-(3-chlorophenyl)-N-(6-(((6-cyclopropyl-8-(3-(2-hydroxyethyl)-2,4-dioxoimidazolidin-1-yl)imidazo[1,2-a]pyridin-2-yl)methyl)amino)pyrimidin-4-yl)cyclopropane-1-carboxamide] yielded an EC50 [1] of under 1 nM and an IC90 (plasma kallikrein) of 400 to 1500 nM.
In the case of `Cc1nccc([C@H]2C[C@@H]2C(=O)Nc2cc(NCc3cn4cc(C5CC5)cc(N5CC(=O)N(C)C5=O)c4n3)ncn2)n1` (racemic) [Example 499, rac-(1S*,2S*)-N-(6-(((6-cyclopropyl-8-(3-methyl-2,4-dioxoimidazolidin-1-yl)imidazo[1,2-a]pyridin-2-yl)methyl)amino)pyrimidin-4-yl)-2-(2-methylpyrimidin-4-yl)cyclopropane-1-carboxamide], the EC50 [1] is reported as 1 to 10 nM and the IC90 (plasma kallikrein) is reported as 400 to 1500 nM.
Work on `Cc1ccnc([C@H]2C[C@@H]2C(=O)Nc2cc(NCc3cn4cc(C5CC5)cc(N5CC(=O)N(C)C5=O)c4n3)cnn2)n1` (racemic) [Example 617, rac-(1S*,2S*)—N-(5-(((6-cyclopropyl-8-(3-methyl-2,4-dioxoimidazolidin-1-yl)imidazo[1,2-a]pyridin-2-yl)methyl)amino)pyridazin-3-yl)-2-(4-methylpyrimidin-2-yl)cyclopropane-1-carboxamide] yielded an EC50 [1] of under 1 nM and an IC90 (plasma kallikrein) of under 400 nM.
`O=C(Nc1cc(NCc2cn3cc(C4CC4)cc(N4CCOC4=O)c3n2)ccn1)[C@H]1C[C@@H]1c1cccc(Cl)c1` [Example I-238, (1S,2S)-2-(3-chlorophenyl)-N-(4-(((6-cyclopropyl-8-(2-oxooxazolidin-3-yl)imidazo[1,2-a]pyridin-2-yl)methyl)amino)pyridin-2-yl)cyclopropane-1-carboxamide] gave an EC50 [1] of under 1 nM and an IC90 (plasma kallikrein) of under 400 nM.
For `CCOC(=O)CN1CCN(c2cc(C3CC3)cn3cc(CNc4ccnc(NC(=O)[C@H]5C[C@@H]5c5cccc(Cl)c5)c4)nc23)CC1` [Example 600, ethyl 2-(4-(2-(((2-((1S,2S)-2-(3-chlorophenyl)cyclopropane-1-carboxamido)pyridin-4-yl)amino)methyl)-6-cyclopropylimidazo[1,2-a]pyridin-8-yl)piperazin-1-yl)acetate], the EC50 [1] was under 1 nM and the IC90 (plasma kallikrein) was over 48000 nM.
For `Cc1ccnc([C@H]2C[C@@H]2C(=O)Nc2cc(NC(C)c3cn4cc(Cl)cc(N5CC(=O)N(C)C5=O)c4n3)nc(C)n2)n1` (stereo partly drawn) [Example 356, (1S,2S)-N-(6-((1-(6-chloro-8-(3-methyl-2,4-dioxoimidazolidin-1-yl)imidazo[1,2-a]pyridin-2-yl)ethyl)amino)-2-methylpyrimidin-4-yl)-2-(4-methylpyrimidin-2-yl)cyclopropane-1-carboxamide], the EC50 [1] was under 1 nM and the IC90 (plasma kallikrein) was 1500 to 10000 nM.
`Nc1ccc(Cl)cc1[C@H]1C[C@@H]1C(=O)Nc1cc(NCc2cn3cc(C4CC4)ccc3n2)ccn1` (racemic) [Example I-222, rac-(1S*,2S*)-2-(2-amino-5-chlorophenyl)-N-(4-(((6-cyclopropylimidazo[1,2-a]pyridin-2-yl)methyl)amino)pyridin-2-yl)cyclopropane-1-carboxamide] was tested, and the EC50 [1] was 1 to 10 nM and the IC90 (plasma kallikrein) was over 48000 nM.
`CN(C)C1CC(=O)N(c2cc(C3CC3)cn3cc(CNc4cc(NC(=O)[C@H]5C[C@@H]5c5cccc(Cl)c5)ncn4)nc23)C1` (stereo partly drawn) [Example I-18, (1S,2S)-2-(3-chlorophenyl)-N-(6-(((6-cyclopropyl-8-(4-(dimethylamino)-2-oxopyrrolidin-1-yl)imidazo[1,2-a]pyridin-2-yl)methyl)amino)pyrimidin-4-yl)cyclopropane-1-carboxamide] was tested, and the EC50 [1] was under 1 nM and the IC90 (plasma kallikrein) was under 400 nM.
In the case of `Cc1ccnc([C@H]2C[C@@H]2C(=O)Nc2ncc(F)c(NCc3cn4cc(C5CC5)cc(N5CC(=O)N(CCOCc6ccccc6)C5=O)c4n3)n2)n1` (racemic) [Example 515, rac-(1S*,2S*)-N-(4-(((8-(3-(2-(benzyloxy)ethyl)-2,4-dioxoimidazolidin-1-yl)-6-cyclopropylimidazo[1,2-a]pyridin-2-yl)methyl)amino)-5-fluoropyrimidin-2-yl)-2-(4-methylpyrimidin-2-yl)cyclopropane-1-carboxamide], the EC50 [1] is reported as under 1 nM and the IC90 (plasma kallikrein) is reported as 400 to 1500 nM.
For `Cc1ccnc([C@H]2C[C@@H]2C(=O)Nc2cc(OCc3cn4cc(C5CC5)cc(N5CC6(COC6)OC5=O)c4n3)nc(C)n2)n1` [Example 553, (1S,2S)-N-(6-((6-cyclopropyl-8-(6-oxo-2,5-dioxa-7-azaspiro[3.4]octan-7-yl)imidazo[1,2-a]pyridin-2-yl)methoxy)-2-methylpyrimidin-4-yl)-2-(4-methylpyrimidin-2-yl)cyclopropane-1-carboxamide], the EC50 [1] was under 1 nM and the IC90 (plasma kallikrein) was under 400 nM.
